# Earlier results as cited in patent publication US20220401366A1, “LONG ACTING NMDA ANTAGONISTS” (Consegna Pharma, Inc., priority 2019, published 2022).
# Details: S-ketamine versus R-ketamine
structure (smiles),measurement,value
CN[C@]1(c2ccccc2Cl)CCCCC1=O [S-ketamine],potency relative to R-ketamine,twice as potent as R-ketamine
